Among the data in ChEMBL document CHEMBL1121962, “Synthesis of 4-amino-1-beta-D-ribofuranosyl-1H-pyrrolo[2,3-b]pyridine (1-deazatubercidin) as a potential antitumor agent” (J Med Chem, 1982) are Activity values, retold here.

The species entered for assay [1] is Mus musculus. Nature of the assay: Effect tested against murine leukemia L1210 cells; Inactive. Type of assay: functional, cell-based.
For assay [2], the species on record is Mus musculus. Nature of the assay: Effect tested against murine sarcoma S-180 cells; Inactive. Type of assay: functional, cell-based.

Activity calls are given as the source filed them. No cut-off for these calls is given here.

Turning to `Nc1ccnc2c1ccn2C1O[C@H](CO)[C@@H](O)[C@H]1O` (some centres not stated), the result in the assay filed under Mus musculus [1] and in the assay filed under Mus musculus [2] was inactive.
